“Also recorded” adds a separate entry of the source. *1 amine or outer side, *2 acyl side, *3 side chain or, on linkers, in order; H or OH if unused. Where a SMILES comes first, the peptide text is derived from it. Bridges are numbered along the chain shown (N, C = ends). Roman numbers before positions name the chains, in order. [ ]: non-standard residue; d: D form. Actinocin(9to1) = Cc1c2oc3c(C)ccc(C(=O)[*:1])c3nc-2c(C(=O)[*:2])c(N)c1=O; NMeV = CN[C@H](C(=O)O)C(C)C; Sar = CNCC(=O)O
Assays:
[1] = system: lung fibroblasts; assay: Western blotting of fibroblast culture supernatants for collagen type I / α1(I); format: cell-based, human; conditions: lung fibroblast cultures, 48 h; for effect on PARC-stimulated collagen production: inhibitor plus PARC; for effect on TGF-β-stimulated collagen production: inhibitor plus TGF-β
Protocol: Collagen Production Assays. Collagen was quantified as described elsewhere (Atamas S P et al.). Briefly, fibroblasts were cultured with β-aminopropionitrile (Sigma) to prevent collagen cross-linking, and Western blotting assays for collagen were performed using rabbit affinity purified anti-collagen type I antibody (Rockland, Gilbertsville, Pa.). Before electrophoresis, samples were reduced and denatured by boiling in Laemmli buffer containing β-mercaptoethanol. Human purified collagen type I (Southern Biotech, Birmingham, Ala.) was used as a positive control in these assays. The identity of collagen bands was confirmed by sensitivity to pepsin and collagenase (both from Sigma) digestion, as described (Atamas S P et al.). Under these conditions, pro-collagen appears as a single or double band around 175 kDa (Gaidarova S et al., Stefanovic B et al.). Images were collected using a Storm densitometer and band densities analyzed with ImageQuant software (Molecular Dynamics, Sunnyvale, Calif.).
Western blotting assays for collagen were performed using rabbit affinity purified anti-collagen type I antibody (Rockland, Gilbertsville, Pa.). Before electrophoresis, samples were reduced and denatured by boiling in Laemmli buffer containing β-mercaptoethanol. Human purified collagen type I (Southern Biotech, Birmingham, Ala.) was used as a positive control in these assays.
Collagen was quantified by Western blotting and the identity of collagen bands was confirmed by sensitivity to pepsin and collagenase digestion as described elsewhere in Atamas et al. (Am. J. Respir. Cell. Mol., 29:743-749 (2003)). In these assays, pro-collagen appears as a single or double band with a molecular weight of approximately 175 kDa (4,27,28).

[2] = biological target: Autocrine (active) TGF-β secreted by human primary lung fibroblast cultures (human); assay: cell-based or functional assay
[3] = system: ERK1/2; assay: Immunoblotting for phosphorylation of ERK1/2; format: cell-based, human; conditions: LF1, rhPARC 15 min, toxin 10 ng/ml
[4] = system: Smad3; assay: Smad3 immunoprecipitation and phosphorylation Western blot; format: cell-based, human; conditions: fibroblasts activated with cytokine
Protocol: To determine if PARC stimulated phosphorylation of Sp1 and Smad3, these factors were immunoprecipitated from lysates of fibroblasts that had been activated with recombinant human PARC for up to 24 hours, and the levels of their phosphorylation were tested in Western blotting assays using anti-phosphoserine and anti-phospho-Smad2/3 antibodies. Equal loading was controlled by stripping the membranes and re-developing them with anti-Sp1, anti-Smad3 and anti-Smad2/3 antibodies (FIG. 17).
Preparation of fibroblast lysates, immunoprecipitation of Sp1 and Smad2/3, normalization of protein concentration in the samples with BioRad assays, electrophoretic separation, Western blotting, membrane stripping and re-development with different antibodies were performed as described in Atamas et al. (Am. J. Respir. Cell. Mol., 29:743-749 (2003); J. Immunol. 168: 1139-1145 (2002); and Arthritis Rheum., 42:1168-1178 (1999)), which are hereby incorporated by reference. Rabbit antibodies for total Smad2/3 and Sp1 were from Upstate (Waltham, Masss.). Antiphospho-Smad2/3 antibody and goat antibody for total Smad3 were from Santa Cruz Biotechnology (Santa Cruz, Calif.), as was anti-gp130 antibody used to confirm equal loading of the samples. Antiphosphoserine antibody was from Biomol (Plymouth Meeting, Pa.).

[5] = system: fibroblasts; conditions: reported for MCP-1; cited from earlier work
[6] = system: lung fibroblasts; assay: Collagen production, metabolic labeling with 14C-proline, PAGE and autoradiography; format: cell-based, human; conditions: for effect on PARC activated collagen production: LF2 lung fibroblasts, 14C-proline
Protocol: Collagen Production Assays. Production of collagen was assessed using metabolic labeling with ^14C-proline and Western blotting with anti-collagen type I antibody. For metabolic labeling of collagen, fibroblasts were plated at 2×10^5 cells/well in 6-well plates (Costar, Cambridge, Mass.), in duplicates, incubated overnight in 3 ml/well of high serum medium, and then for 24 h in low-serum medium. After that, the culture medium was replaced with 1 ml/well of fresh low serum medium with or without added test substances and containing ^14C-proline at 1 μCi/ml (Amersham Pharmacia Biotech). After incubation for the desired periods of time, the cell culture supernatants were collected, rapidly frozen in liquid nitrogen and freeze-dried at −70° C. The pellets were dissolved in 100 μl of reducing Laemmli buffer per 1 ml of the cell culture supernatant, and the samples were electrophoretically separated in 7.5% acrylamide gels. Alternatively, samples were concentrated 10-fold by filter centrifugation on 30K Ultrafree-MC filters (Millipore, Bedford, Mass.). Fluorographic images were developed using EN[3H]ANCE autoradiography enhancer (NEN, Boston, Mass.). Gel images were acquired using Storm densitometer (Molecular Dynamics, Sunnyvale, Calif.), and the densities of the bands were analyzed with ImageQuant software (Molecular Dynamics). Dependence of collagen production by fibroblast cultures on the dose of PARC and duration of stimulation were evaluated using one-way ANOVA with post hoc testing.
The identity of collagen bands was confirmed by sensitivity to pepsin and collagenase (both from Sigma) digestion. For pepsin digestion, 2 μl of 1 Macetic acid were added to 40 μl of concentrated fibroblast culture supernatant, followed by 1 μl of pepsin stock, to achieve final concentration of pepsin as indicated in the text. After 15 min of digestion at room temperature, reaction was stopped with 4 μl of 1 M Tris base and 40 μl of reducing Laemmli buffer. For collagenase digestion, 1 μl of 4 U/ml bacterial collagenase and 1 μl of protease inhibitor cocktail (Sigma) were added to 40 μl of sample and digestion performed at room temperature for 30 min. The bacterial collagenase was highly purified and had minimal clostripain and neutral protease activity, as tested by the manufacturer, according to the product information sheet.
To test effects of rhPARC on collagen protein production by lung and dermal fibroblast cell lines, fibroblast cultures were incubated for 48 h with or without 30 ng/ml and 300 ng/ml rhPARC in the low-serum cell culture medium containing 14Cproline for metabolic labeling of collagen. Fibroblast culture supernatants contained two 14C-proline containing bands in gel electrophoresis under reducing conditions (FIGS. 13A and 13B). Digestion with chromatographically pure bacterial collagenase in the presence of protease inhibitors eliminated the bands completely (FIG. 13A). To confirm the identity of these bands, we conducted Western blotting experiments in reducing conditions of fibroblast culture supernatants using an anti-collagen type I antibody, that recognizes α1(I) collagen but not other collagen chains. Digestion with pepsin caused expected decrease in the apparent molecular weight of the immunoreactive collagen from ˜175 kD to ˜125 kD (FIG. 13C).

[7] = system: α2(I) collagen mRNA; assay: Real-time PCR for α2(I) collagen mRNA relative to 18S rRNA; format: cell-based, human; conditions: 10 μg/ml actinomycin D before stimulation with PARC
[8] = listed as Recombinant latency-associated peptide

## Aprotinin [reference compound]
[1]
  effect on PARC-stimulated collagen production: failed to inhibit the effect of PARC
  effect on TGF-β-stimulated collagen production: had no effect on collagen production

## Neutralizing anti-pan-TGF-β antibody, monoclonal mouse IgG1 clone 1D11 (R&D Systems)
[2]
  mink lung epithelial cell proliferation (thymidine incorporation); antibody concentration that abrogates the inhibition: 1 µg/mL

## Bordetella PT [reference compound]
[3]
  effect on PARC-stimulated ERK phosphorylation: inhibited phosphorylation of ERK; also recorded: block PARC-stimulated ERK phosphorylation

## rhTGF-β1: Recombinant human TGF-β1 from R&D Systems, positive control for fibroblast stimulation
[4]
  phosphorylation of immunoprecipitated Smad3: increased phosphorylation of Smad3

## MCP-1: CC chemokine known to induce collagen production in pulmonary fibroblasts through autocrine TGF-β
[5]
  concentration stimulating detectable collagen production: 100 to 400 ng/mL

## NC(=O)c1ccc(-c2nc(-c3ccc4c(c3)OCO4)c(-c3ccccn3)[nH]2)cc1 [SB431542, reference compound]
[1]
  effect on TGF-β-stimulated collagen production: blocked TGF-β-stimulated; also recorded: abrogated TGF-β-stimulated

## C[S+]([O-])c1ccc(-c2nc(-c3ccncc3)c(-c3ccc(F)cc3)[nH]2)cc1 (stereo not drawn) [SB203580, reference compound]
[6]
  effect on PARC activated collagen production: had no effect

## COc1cccc(-c2cc(=O)c3ccccc3o2)c1N [PD98059, reference compound]
[6]
  effect on PARC activated collagen production: inhibited PARC activated collagen production

## Cc1c2oc3c(C)ccc(C(=O)N[C@@H]4C(=O)N[C@H](C(C)C)C(=O)N5CCC[C@H]5C(=O)N(C)CC(=O)N(C)[C@@H](C(C)C)C(=O)O[C@@H]4C)c3nc-2c(C(=O)N[C@@H]2C(=O)N[C@H](C(C)C)C(=O)N3CCC[C@H]3C(=O)N(C)CC(=O)N(C)[C@@H](C(C)C)C(=O)O[C@@H]2C)c(N)c1=O [actinomycin D, Actinomycin D, reference compound] (I: T[dV]P[Sar][NMeV] / II: T[dV]P[Sar][NMeV]; ester I:1-I:C, II:1-II:C; linker I:N-II:N via Actinocin(9to1))
[7]
  effect on PARC-induced increase in collagen mRNA: completely abrogated the increase in collagen mRNA

## rhLAP: Latency-associated peptide (R&D Systems) used for TGF-β neutralization
[1]; [8]
  effect on PARC-stimulated collagen production: failed to block the effect of PARC
  effect on TGF-β-stimulated collagen production: inhibited the effect of TGF-β
[1]
  effect on TGF-β-stimulated collagen production: inhibited stimulating effect of TGF-β
[1]; listed as Recombinant human LAP
  effect on TGF-β-stimulated collagen production: inhibited stimulating effect of TGF-β

## rhIL-4: recombinant human interleukin 4 purchased from R&D Systems
[6]; LF2 cells, 10 ng/ml rhIL-4, 48 h
  combined density of procollagen bands, fold higher than non-stimulated control: 2.9 fold

Reference: patent US20060009452A1, “Therapeutic targeting of PARC/CCL18 and its signaling in pulmonary fibrosis” (priority 2004, published 2006)
